Here are results for 11 compounds from ChEMBL document CHEMBL1201862, “PubChem BioAssay data set” (2004).

Among the test systems are A498; BT-549; CAKI-1; HOP-62; Hs-578T; KM12; LOX IMVI; M14; MCF7; MDA-MB-231; MDA-N; NCI-H23; OVCAR-3; OVCAR-4; SN12C; UO-31; A549; HCC 2998; SF-539; 786-0.
What all share (experiment): growth of human tumour cells (NCI), 48 h

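Five compound concentrations were applied to cells in 96-well plates for 48 hours; endpoints were derived by simple linear interpolation of the resulting dose-response curve. GI50 = concentration required for 50% inhibition of growth.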 Activity calls are given as the source filed them. Cut-off read from the data, not from the text of the source: active = GI50 up to about 1.1 µM and inactive = higher. Some results are limits rather than exact numbers.

Consider `CC(C)(C)[Si](C)(C)OCC1OC(n2cnc3c(N)ncnc32)C2OC(=S)OC12` (stereo not drawn), for which the GI50 in the experiment with A498 is 52.7 µM (inactive); in the experiment on BT-549 it was 25.1 µM (inactive); with CAKI-1, 41.3 µM (inactive); in the experiment with HOP-62 it was 36.7 µM (inactive); in the experiment on Hs-578T, 41.5 µM (inactive); in the experiment with KM12 it was 35 µM (inactive). Moreover, the GI50 in the experiment with LOX IMVI is 28.7 µM (inactive); in the experiment with M14, 45.5 µM (inactive); in the experiment on MCF7, 34.6 µM (inactive); in the experiment on MDA-MB-231, 27.7 µM (inactive); with MDA-N it was 27.2 µM (inactive); in the experiment with NCI-H23, 21.8 µM (inactive). Moreover, the GI50 with OVCAR-3 is 29.2 µM (inactive); in the experiment with OVCAR-4 it was 81.3 µM (inactive); in the experiment on SN12C, 35.5 µM (inactive); in the experiment on UO-31, 23.5 µM (inactive).

On to `CN1Cc2cc(O)c(O)cc2C(O)C1` (stereo not drawn), for which the GI50 in the experiment with A549, in the experiment with BT-549, in the experiment on CAKI-1, in the experiment with HCC 2998, in the experiment with HOP-62 and in the experiment on Hs-578T was > 100 µM (inactive) throughout. Further, the GI50 is > 100 µM (inactive) in the experiment on KM12; 69.2 µM (inactive) with LOX IMVI; > 100 µM (inactive) in the experiment on M14; > 100 µM (inactive) in the experiment with MCF7; > 100 µM (inactive) with MDA-MB-231; 55.2 µM (inactive) in the experiment on MDA-N. The GI50 with NCI-H23 was > 100 µM (inactive); with OVCAR-3 it was > 100 µM (inactive); in the experiment on OVCAR-4, > 100 µM (inactive); with SF-539, > 100 µM (inactive); in the experiment on SN12C it was > 100 µM (inactive); in the experiment with UO-31, 83 µM (inactive).

Take `O=C1CC(/C=C/c2ccco2)=C(O)C1=O`: the GI50 was 23.9 µM (inactive) in the experiment on A549; 8.49 µM (inactive) in the experiment on BT-549; 14.6 µM (inactive) with CAKI-1; 17.9 µM (inactive) in the experiment on HCC 2998; 1.84 µM (inactive) in the experiment with HOP-62; 16.7 µM (inactive) in the experiment with Hs-578T. Besides, the GI50 with KM12 was 13.8 µM (inactive); with LOX IMVI, 12.8 µM (inactive); with M14 it was 14.8 µM (inactive); with MCF7 it was 7.01 µM (inactive); in the experiment with MDA-MB-231, 17.7 µM (inactive); in the experiment with MDA-N, 12.3 µM (inactive). Also, the GI50 in the experiment with NCI-H23 is 11.6 µM (inactive); in the experiment on OVCAR-3, 13 µM (inactive); with OVCAR-4 it was 14.2 µM (inactive); with SF-539, 13.9 µM (inactive); in the experiment on SN12C, 13.6 µM (inactive); in the experiment on UO-31 it was 20.7 µM (inactive).

Regarding `CN(C)CCN1C(=O)c2ccccc2C1(O)c1ccc(Cl)cc1` (stereo not drawn), the GI50 in the experiment with 786-0 is > 100 µM (inactive); with A549, > 100 µM (inactive); in the experiment with BT-549, > 100 µM (inactive); in the experiment on CAKI-1, 40.8 µM (inactive); in the experiment on HCC 2998, 62.7 µM (inactive); in the experiment with HOP-62 it was > 100 µM (inactive). In addition, the GI50 was 74 µM (inactive) in the experiment on Hs-578T; 69.5 µM (inactive) with KM12; 42.9 µM (inactive) with M14; > 100 µM (inactive) in the experiment on MCF7; 44.6 µM (inactive) in the experiment with MDA-MB-231; 79.4 µM (inactive) with MDA-N. For the same compound, the GI50 is > 100 µM (inactive) with NCI-H23; > 100 µM (inactive) in the experiment on OVCAR-3; > 100 µM (inactive) in the experiment with OVCAR-4; > 100 µM (inactive) in the experiment on SN12C; 24.3 µM (inactive) with UO-31.

Consider `CC1(C)CC(C2=NCCO2)CC(C)(C)N1`, for which the GI50 in the experiment with 786-0, in the experiment on A498, in the experiment with A549, with BT-549, with CAKI-1 and in the experiment with HOP-62 was > 100 µM (inactive) each time. Further, the GI50 with Hs-578T is > 100 µM (inactive); with LOX IMVI, > 100 µM (inactive); with M14, > 100 µM (inactive); in the experiment on MCF7 it was 27.7 µM (inactive); with MDA-MB-231, > 100 µM (inactive); in the experiment with MDA-N, > 100 µM (inactive). Moreover, the GI50 in the experiment with NCI-H23, with OVCAR-3, in the experiment with OVCAR-4, with SF-539, with SN12C and in the experiment on UO-31 was > 100 µM (inactive) in each case.

Turning to `ClC1=NN=C(c2c[nH]c3ccccc23)CC1NCc1ccccc1` (stereo not drawn), the GI50 in the experiment with 786-0, with A498, in the experiment with A549, with BT-549, with CAKI-1 and in the experiment with HOP-62 was > 100 µM (inactive) throughout. For the same compound, the GI50 in the experiment on Hs-578T, in the experiment with KM12, with LOX IMVI, in the experiment on M14, in the experiment with MDA-MB-231 and in the experiment on MDA-N was > 100 µM (inactive) throughout. Also, the GI50 in the experiment with NCI-H23, with OVCAR-3, with SF-539, in the experiment with SN12C and in the experiment on UO-31 was > 100 µM (inactive) in each case.

As for `COc1ccc([C@H]2CC(=O)C[C@H](c3ccc(OC)cc3OC)C23C(=O)c2ccccc2C3=O)c(OC)c1`, the GI50 in the experiment with 786-0, in the experiment with A549, in the experiment with BT-549, in the experiment with CAKI-1, in the experiment on HCC 2998 and in the experiment on HOP-62 was > 100 µM (inactive) each time. For the same compound, the GI50 in the experiment on Hs-578T was > 100 µM (inactive); with KM12 it was > 100 µM (inactive); in the experiment on LOX IMVI, 65 µM (inactive); in the experiment with M14 it was > 100 µM (inactive); with MCF7, > 100 µM (inactive); with MDA-MB-231 it was > 100 µM (inactive). For the same compound, the GI50 in the experiment with MDA-N, in the experiment with NCI-H23, in the experiment on OVCAR-3, in the experiment with OVCAR-4, in the experiment on SF-539 and with SN12C was > 100 µM (inactive) throughout. Moreover, in the experiment with UO-31, the GI50 is > 100 µM (inactive).

For the compound `Cc1ccc(-n2c(=O)c3nn4c(=O)n(-c5ccc(C)cc5)c(=O)c4nn3c2=O)cc1`, the GI50 in the experiment on 786-0, in the experiment on A549, with BT-549, with CAKI-1, in the experiment on HCC 2998 and in the experiment with HOP-62 was > 100 µM (inactive) throughout. In addition, the GI50 in the experiment on Hs-578T, in the experiment on KM12, in the experiment with LOX IMVI, in the experiment with M14, in the experiment on MCF7 and with MDA-N was > 100 µM (inactive) throughout. For the same compound, the GI50 in the experiment on NCI-H23, in the experiment with OVCAR-3, in the experiment with OVCAR-4, in the experiment with SF-539, with SN12C and in the experiment with UO-31 was > 100 µM (inactive) in each case.

With `CC(=O)OCCCC(NC(=O)OC(C)(C)C)C(=O)NC(CCCOC(C)=O)C(=O)NC(Cc1ccc([N+](=O)[O-])cc1)C(=O)NCC(=O)OCc1ccccc1` (stereo not drawn), the GI50 is 18 µM (inactive) in the experiment with 786-0; 20.3 µM (inactive) in the experiment with A549; 18.5 µM (inactive) in the experiment on BT-549; 18.5 µM (inactive) in the experiment on CAKI-1; 18.9 µM (inactive) with HCC 2998; 19.5 µM (inactive) with HOP-62. Besides, the GI50 was 14 µM (inactive) in the experiment with Hs-578T; 15.6 µM (inactive) in the experiment with KM12; 13.1 µM (inactive) in the experiment on LOX IMVI; 12.9 µM (inactive) in the experiment on M14; 17.9 µM (inactive) in the experiment with MCF7; 13 µM (inactive) in the experiment with MDA-MB-231. Moreover, the GI50 is 15.3 µM (inactive) in the experiment on MDA-N; 14.3 µM (inactive) with NCI-H23; 16.5 µM (inactive) in the experiment with OVCAR-3; 12.3 µM (inactive) in the experiment with OVCAR-4; 15.3 µM (inactive) with SF-539; 17.7 µM (inactive) in the experiment with SN12C. Also, the GI50 in the experiment on UO-31 was 16.1 µM (inactive).

With `Cc1cc(C)c2c(n1)S(=O)(=O)N(CCCN1CCN(c3cccc(C(F)(F)F)c3)CC1)C(C(=O)c1ccc(Cl)cc1)=C2O`, the GI50 in the experiment with 786-0 is 2.47 µM (inactive); with A498 it was 4.52 µM (inactive); in the experiment on A549 it was 2.74 µM (inactive); in the experiment on BT-549, 6.1 µM (inactive); in the experiment with CAKI-1, 1.11 µM (active); with HOP-62, 5.81 µM (inactive). The GI50 in the experiment on Hs-578T was 5.55 µM (inactive); in the experiment with KM12, 3.58 µM (inactive); in the experiment on LOX IMVI, 0.515 µM (active); in the experiment on M14, 2.65 µM (inactive); in the experiment on MCF7 it was 3.26 µM (inactive); with MDA-MB-231, 4.4 µM (inactive). Also, the GI50 in the experiment with MDA-N is 3.15 µM (inactive); in the experiment with NCI-H23, 2.47 µM (inactive); in the experiment on OVCAR-3, 3.57 µM (inactive); in the experiment on OVCAR-4, 3.06 µM (inactive); in the experiment on SF-539, 3.84 µM (inactive); in the experiment with SN12C, 2.02 µM (inactive). For the same compound, the GI50 in the experiment with UO-31 was 1.33 µM (inactive).

Turning to `O=C1/C(=C/c2cccc([N+](=O)[O-])c2)CCCc2ccccc21`, the GI50 was 13.7 µM (inactive) with 786-0; 19.9 µM (inactive) in the experiment with A549; 12.5 µM (inactive) in the experiment on BT-549; 16.5 µM (inactive) in the experiment on CAKI-1; 10.3 µM (inactive) in the experiment on HCC 2998; 15.6 µM (inactive) in the experiment on HOP-62. Further, the GI50 in the experiment with Hs-578T is 3.94 µM (inactive); in the experiment on KM12, 2.42 µM (inactive); with LOX IMVI it was 3.4 µM (inactive); in the experiment with M14, 13.8 µM (inactive); in the experiment on MCF7, 3.92 µM (inactive); in the experiment on MDA-MB-231, 17 µM (inactive). The GI50 in the experiment on MDA-N is 9.33 µM (inactive); in the experiment with NCI-H23, 15.8 µM (inactive); with OVCAR-3, 13.6 µM (inactive); in the experiment on OVCAR-4 it was 13.7 µM (inactive); in the experiment on SF-539 it was 15.3 µM (inactive); with SN12C it was 17.3 µM (inactive). For the same compound, the GI50 in the experiment on UO-31 was 16.4 µM (inactive).
